The text below walks through data of US11427869B2, “T cell balance gene expression, compositions of matters and methods of use thereof” (THE BROAD INSTITUTE, INC., priority 2015, dated 2022).

For the assay, the target named is T1, Rorγt (Mus musculus, UniProt P51450).
T1 construct: expressed in transfected cells; host or cells: EL4 cells stably transfected with Rorγt vector
T1 sequence (P51450 1-495 isoform P51450-2): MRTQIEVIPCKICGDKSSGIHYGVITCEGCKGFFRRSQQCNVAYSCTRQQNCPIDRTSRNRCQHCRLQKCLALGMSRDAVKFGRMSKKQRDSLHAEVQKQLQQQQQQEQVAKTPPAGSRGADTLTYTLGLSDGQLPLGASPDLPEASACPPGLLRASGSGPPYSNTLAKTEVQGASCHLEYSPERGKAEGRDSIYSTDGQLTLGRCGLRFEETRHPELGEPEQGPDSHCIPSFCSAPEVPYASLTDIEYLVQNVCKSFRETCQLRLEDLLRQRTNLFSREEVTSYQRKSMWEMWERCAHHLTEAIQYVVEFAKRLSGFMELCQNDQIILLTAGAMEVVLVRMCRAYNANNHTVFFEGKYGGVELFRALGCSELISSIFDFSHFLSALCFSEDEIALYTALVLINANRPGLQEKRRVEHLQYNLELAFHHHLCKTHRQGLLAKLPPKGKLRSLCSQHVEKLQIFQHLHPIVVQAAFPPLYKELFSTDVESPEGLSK
The assay can be described thus: Dual luciferase reporter assay of Rorγt transcriptional activity in EL4 cells. The class given is cell-based. Conditions: in the presence of an agonistic Rorγt ligand. The protocol:
Cells and supernatant were harvested at 96 hours and subjected to MS/LC. Three independent mouse experiments were performed. […] All ChIP and luciferase assay are representative of at least 3 independent experiments.
Three independent experiments were performed.

Turning to `CCCCC/C=C\C/C=C\C/C=C\C/C=C\CCCC(=O)O` [PUFA, arachidonic acid], the Il10 transactivation result is recorded as “enhanced Il10 transactivation” and the “Rorγt-mediated Il23r transactivation” value is “inhibited Rorγt-mediated Il23r transactivation”.
